Data from ChEMBL document CHEMBL5107958, “Phosphoramidate Prodrugs Continue to Deliver, The Journey of Remdesivir (GS-5734) from RSV to SARS-CoV-2” (ACS Med Chem Lett, 2022).
pEC50: −log10 of the molar value.

Columns and labels:
[1] = Prodrug conversion in human macrophages assessed as half life of triphosphate metabolite; type: ADME, cell-based; conditions: macrophage
[2] = Clearance in human at 2.5 mg/kg, iv; type: ADME, organism-based; conditions: in vivo
SARS-CoV-2 [3] = assay: Potency index, ratio of EC50 of GS-441524 to EC50 of test compound for antiviral activity against SARS-CoV-2 infected in human Huh-7 cells assessed as reduction in virus-induced cytopathic effect at MOI of 0.0037 measured after 4 days by MTS assay; type: functional, Severe acute respiratory syndrome coronavirus 2; conditions: time 4 day
Ebolavirus [4] = assay: Potency index, ratio of EC50 of GS-441524 to EC50 of test compound for antiviral activity against Ebola infected in human HeLa cells assessed as reduction in viral replication; type: functional
Marburgvirus [5] = assay: Antiviral activity against MARV Rec. Bat371-GFP infected in human Huh-7 cells assessed as reduction in viral replication incubated for 48 to 144 hrs by fluorescence based assay; type: functional, organism-based; conditions: Orthomarburgvirus
Ebolavirus [6] = assay: Potency index, ratio of EC50 of GS-441524 to EC50 of test compound for antiviral activity against Ebola infected in human macrophages assessed as reduction in viral replication; type: functional, Macrophage
Nipah virus [7] = assay: Potency index, ratio of EC50 of GS-441524 to EC50 of test compound for antiviral activity against Nipah M1999 infected in human HeLa cells assessed as reduction in viral replication incubated for 48 to 144 hrs by reporter virus assay; type: functional, Henipavirus nipahense; conditions: time 48-144 hrs
[8] = Half life in human at 2.5 mg/kg, iv; type: ADME, organism-based; conditions: in vivo
[9] = Clearance in ferret at 10 mg/kg, iv; type: ADME, organism-based, Mustela putorius furo; conditions: in vivo
[10] = Prodrug conversion in ferret assessed as AUC (0 to last) of parent nucleoside compound at 10 mg/kg, iv; type: ADME, organism-based, Mustela putorius furo; set-up: time 0 - last, dose 10 mg/kg, route iv; conditions: in vivo
SARS-CoV-2 [11] = assay: Potency index, ratio of EC50 of GS-441524 to EC50 of test compound for antiviral activity against SARS-CoV-2 infected in human Caco-2 cells assessed as reduction in viral replication at MOI of 0.01 measured after 72 hrs by qRT-PCR analysis; type: functional, Severe acute respiratory syndrome coronavirus 2
Nipah virus [12] = assay: Antiviral activity against Nipah virus infected in African green monkey assessed as animal survival at 10 mg/kg, iv qd relative to control; type: functional; conditions: Henipavirus nipahense
Nipah virus [13] = assay: Antiviral activity against Nipah B2004 infected in human NCI-H358 cells assessed as reduction in viral replication incubated for 48 to 144 hrs by reporter virus assay; type: functional, organism-based; conditions: Henipavirus nipahense
Marburgvirus [14] = assay: Potency index, ratio of EC50 of GS-441524 to EC50 of test compound for antiviral activity against MARV Rec. Bat371-GFP infected in human Huh-7 cells assessed as reduction in viral replication incubated for 48 to 144 hrs by fluorescence based assay; type: functional; conditions: time 48-144 hrs
SARS-CoV-2 [15] = assay: Antiviral activity against SARS-CoV-2 infected in African green monkey Vero E6 cells assessed as reduction in viral replication; type: functional, organism-based; conditions: Severe acute respiratory syndrome coronavirus 2, Vero C1008
Measles morbillivirus [16] = assay: Antiviral activity against Measles virus infected in HMVEC cells assessed as reduction in viral replication; type: functional, organism-based
[17] = Half life in Rhesus monkey at 10 mg/kg, iv; type: ADME, organism-based, Macaca mulatta; conditions: in vivo
SARS-CoV [18] = assay: Potency index, ratio of EC50 of GS-441524 to EC50 of test compound for antiviral activity against SARS-CoV infected in HAE cells assessed as reduction in viral replication at MOI of 0.5 preincubated for 3 hrs followed by virus removal measured after 48 hrs by Hoechst 33258 staining based assay; type: functional, Severe acute respiratory syndrome-related coronavirus; conditions: time 51 hrs
Ebolavirus [19] = assay: Antiviral activity against Ebola infected in human HeLa cells assessed as reduction in viral replication; type: functional, organism-based; conditions: Orthoebolavirus
SARS-CoV-2 [20] = assay: Antiviral activity against SARS-CoV-2 infected in HAE cells assessed as reduction in viral replication at MOI of 0.5 incubated for 2 hrs followed by virus removal measured after 48 hrs by plaque assay; type: functional, organism-based; conditions: Severe acute respiratory syndrome coronavirus 2, HAE
SARS-CoV-2 [21] = assay: Antiviral activity against SARS-CoV-2 infected in human Calu-3 2B4 cells assessed as reduction in viral replication at MOI of 0.01 preincubated for 2 hrs followed by viral infection for 30 mins and subsequent virus removal and addition of medium containing compound measured after 72 hrs by RT-qPCR analysis; type: functional, organism-based; conditions: Severe acute respiratory syndrome coronavirus 2, Calu-3 2B4
SARS-CoV-2 [22] = assay: Potency index, ratio of EC50 of GS-441524 to EC50 of test compound for antiviral activity against SARS-CoV-2 infected in human PSC-derived lung epithelial cells assessed as reduction in viral replication; type: functional, Severe acute respiratory syndrome coronavirus 2, PSC-derived lung epithelial cell
Measles morbillivirus [23] = assay: Potency index, ratio of EC50 of GS-441524 to EC50 of test compound for antiviral activity against Measles virus infected in HMVEC cells assessed as reduction in viral replication; type: functional
Ebolavirus [24] = assay: Antiviral activity against Ebola infected in human macrophages assessed as reduction in viral replication; type: functional, organism-based; conditions: Orthoebolavirus, Macrophage
SARS-CoV [25] = assay: Antiviral activity against SARS-CoV infected in HAE cells assessed as reduction in viral replication at MOI of 0.5 preincubated for 3 hrs followed by virus removal measured after 48 hrs by Hoechst 33258 staining based assay; type: functional, organism-based; conditions: Severe acute respiratory syndrome-related coronavirus
Measles morbillivirus [26] = assay: Potency index, ratio of EC50 of GS-441524 to EC50 of test compound for antiviral activity against Measles Rec.rMVEZGFP(3) infected in human HeLa cells assessed as reduction in viral replication incubated for 48 to 144 hrs by fluorescence based assay; type: functional; conditions: time 48-144 hrs
[27] = tested on: Middle East respiratory syndrome-related coronavirus; assay: Antiviral activity against MERS-CoV infected in human Calu-3 2B4 cells assessed as reduction in viral replication at MOI of 0.08 infected for 1 hr followed by virus removal and subsequent addition of medium containing compound measured after 48 hrs post-infection by nLUC assay; type: functional, organism-based
Nipah virus [28] = assay: Antiviral activity against Nipah M1999 infected in human HeLa cells assessed as reduction in viral replication incubated for 48 to 144 hrs by reporter virus assay; type: functional, organism-based; conditions: Henipavirus nipahense
SARS-CoV-2 [29] = assay: Antiviral activity against SARS-CoV-2 infected in human Caco-2 cells assessed as reduction in viral replication at MOI of 0.01 measured after 72 hrs by qRT-PCR analysis; type: functional, organism-based; conditions: Severe acute respiratory syndrome coronavirus 2, Caco-2, 72 h
[30] = Prodrug conversion in human assessed as AUC (0 to last) of parent nucleoside compound at 2.5 mg/kg, iv; type: ADME, organism-based; set-up: time 0 - last, dose 2.5 mg/kg, route iv; conditions: in vivo
[31] = Stability of prodrug in mouse assessed as half life; type: ADME; conditions: in vivo
[32] = Half life in ferret at 10 mg/kg, iv; type: ADME, organism-based, Mustela putorius furo; conditions: in vivo
SARS-CoV-2 [33] = assay: Potency index, ratio of EC50 of GS-441524 to EC50 of test compound for antiviral activity against SARS-CoV-2 infected in African green monkey Vero E6 cells assessed as reduction in viral replication; type: functional, Severe acute respiratory syndrome coronavirus 2
SARS-CoV-2 [34] = assay: Antiviral activity against SARS-CoV-2 infected in human Calu-3 cells assessed as reduction in viral replication at MOI of 0.01 measured after 72 hrs by qRT-PCR analysis; type: functional, organism-based; conditions: Severe acute respiratory syndrome coronavirus 2, Calu-3, 72 h
[35] = AUC (0 to infinity) in ferret at 10 mg/kg, iv; type: ADME, organism-based, Mustela putorius furo; set-up: time infinity, dose 10 mg/kg, route iv; conditions: in vivo

With `CCC(CC)OC(=O)[C@H](C)N[P@](=O)(OC[C@H]1O[C@@](C#N)(c2ccc3c(N)ncnn23)[C@H](O)[C@@H]1O)Oc1ccccc1` the t1/2 [1] was 840 min, the clearance [2] was 14.3 mL/min/kg and the Ratio (SARS-CoV-2 [3]) was >1000. For the same compound, the Ratio (Ebolavirus [4]) was >143, the pEC50 (Marburgvirus [5]) was 7.85 and the Ratio (Ebolavirus [6]) was >232. It also gave a Ratio (Nipah virus [7]) of 32, a half-life [8] of 60 min and a clearance [9] of 43.3 mL/min/kg. For the same compound, the AUClast [10] was 18.2 µM·h, the Ratio (SARS-CoV-2 [11]) was 80 and the survival at 10 mg/kg (Nipah virus [12]) was 100%. It also gave a pEC50 (Nipah virus [13]) of 7.49, a Ratio (Marburgvirus [14]) of 136 and a pEC50 (SARS-CoV-2 [15]) of 6.13. The pEC50 (Measles morbillivirus [16]) was 7.22, the half-life [17] was 23 min and the Ratio (SARS-CoV [18]) was 2.6. For the same compound, the pEC50 (Ebolavirus [19]) was 6.85, the pEC50 (SARS-CoV-2 [20]) was 8.00 and the pEC50 (SARS-CoV-2 [21]) was 6.55. The Ratio (SARS-CoV-2 [22]) was 5.3, the Ratio (Measles morbillivirus [23]) was 13 and the pEC50 (Ebolavirus [24]) was 7.07. The pEC50 (SARS-CoV [25]) was 7.16, the Ratio (Measles morbillivirus [26]) was 27 and the pEC50 [27] was 7.16. For the same compound, the pEC50 (Nipah virus [28]) was 7.18, the pEC50 (SARS-CoV-2 [29]) was 9.00 and the AUClast [30] was 7.5 µM·h. For the same compound, the t1/2 [31] was 5 min, the half-life [32] was 11 min and the Ratio (SARS-CoV-2 [33]) was 0.7. It also gave a pEC50 (SARS-CoV-2 [34]) of 6.96 and an AUC(0-inf) [35] of 7 µM·h.
